Assay type in all cases: cell-based
In one assay the target is NK1 (Homo sapiens, UniProt P25103). The assay is described as follows: Signal transduction (ST), intracellular Ca++ (FLIPR), functional NK1 antagonistic activity. To be noted: antagonist, read-out: NK1 pIC50 (converted). On the procedure:
(§1) This test evaluates in vitro functional NK1 antagonistic activity. For the measurements of intracellular Ca^++ concentrations the cells were grown on 96-well (black wall/transparent bottom) plates from Costar for 2 days until they reached confluence. The cells were loaded with 2 μM Fluo3 in DMEM containing 0.1% BSA and 2.5 mM probenecid for 1 h at 37° C. They were washed 3× with a Krebs buffer (140 mM NaCl, 1 mM MgCl2×6H2O, 5 mM KCl, 10 mM glucose, 5 mM HEPES; 1.25 mM CaCl2; pH 7.4) containing 2.5 mM probenecid and 0.1% BSA (Ca^++-buffer). The cells were preincubated with a concentration range of antagonists for 20 min at RT and Ca^++-signals after addition of the agonists were measured in a Fluorescence Image Plate Reader (FLIPR from Molecular Devices, Crawley, England). The peak of the Ca^++-transient was considered as the relevant signal and the mean values of corresponding wells were analysed as described below.
(§2) The sigmoidal dose response curves were analysed by computerised curve-fitting, using the GraphPad Program. The EC50-value of a compound is the effective dose showing 50% of maximal effect. For mean curves the response to the agonist with the highest potency was normalised to 100%. For antagonist responses the IC50-value was calculated using non-linear regression.
(§3) The last columns indicate—without being limited thereto—for which action the compounds might be most suitable. Of course, since for some neurokinin receptors no data was determined, it is obvious that these compounds might be attributed to another suitable use.

The target of another assay is T1, NK3 (Homo sapiens, UniProt P29371).
T1 sequence (P29371 1-465): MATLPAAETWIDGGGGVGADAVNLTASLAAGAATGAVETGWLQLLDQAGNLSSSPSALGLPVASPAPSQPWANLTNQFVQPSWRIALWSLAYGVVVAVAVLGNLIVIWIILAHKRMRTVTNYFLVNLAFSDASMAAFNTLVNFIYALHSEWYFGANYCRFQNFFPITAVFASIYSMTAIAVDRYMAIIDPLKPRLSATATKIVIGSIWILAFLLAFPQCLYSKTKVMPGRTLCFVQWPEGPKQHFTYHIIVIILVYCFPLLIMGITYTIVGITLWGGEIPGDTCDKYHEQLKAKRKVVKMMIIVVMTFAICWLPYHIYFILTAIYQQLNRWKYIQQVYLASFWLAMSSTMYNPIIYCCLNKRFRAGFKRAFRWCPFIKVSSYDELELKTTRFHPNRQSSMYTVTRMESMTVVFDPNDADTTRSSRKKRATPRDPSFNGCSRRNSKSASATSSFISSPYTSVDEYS
The assay is described as follows: Signal transduction (ST), intracellular Ca++ (FLIPR), NK3. To be noted: antagonist, read-out: NK3 pIC50 (converted). On the procedure:
[The source words this procedure for another target and reports this target under the same test.] as §1, §2, §3

The target of the next assay is T2, NK2 (Homo sapiens, UniProt P21452).
T2 sequence (P21452 1-398): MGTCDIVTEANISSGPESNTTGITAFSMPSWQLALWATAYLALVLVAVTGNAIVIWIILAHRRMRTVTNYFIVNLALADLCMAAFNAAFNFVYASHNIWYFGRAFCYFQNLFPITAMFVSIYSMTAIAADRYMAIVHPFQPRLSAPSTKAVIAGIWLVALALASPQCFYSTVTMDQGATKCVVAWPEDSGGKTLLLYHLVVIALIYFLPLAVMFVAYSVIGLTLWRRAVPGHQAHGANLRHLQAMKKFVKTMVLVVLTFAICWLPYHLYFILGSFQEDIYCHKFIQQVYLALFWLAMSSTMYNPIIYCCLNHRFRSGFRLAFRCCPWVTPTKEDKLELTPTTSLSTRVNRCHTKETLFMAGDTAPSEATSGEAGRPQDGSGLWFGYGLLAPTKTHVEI
The assay is described as follows: Signal transduction (ST), intracellular Ca++ (FLIPR), NK2. Particulars: antagonist, read-out: NK2 pIC50 (converted). On the procedure: [The source words this procedure for another target and reports this target under the same test.] as §1, §2, §3

Sequence of NK1 (P25103 whole entry): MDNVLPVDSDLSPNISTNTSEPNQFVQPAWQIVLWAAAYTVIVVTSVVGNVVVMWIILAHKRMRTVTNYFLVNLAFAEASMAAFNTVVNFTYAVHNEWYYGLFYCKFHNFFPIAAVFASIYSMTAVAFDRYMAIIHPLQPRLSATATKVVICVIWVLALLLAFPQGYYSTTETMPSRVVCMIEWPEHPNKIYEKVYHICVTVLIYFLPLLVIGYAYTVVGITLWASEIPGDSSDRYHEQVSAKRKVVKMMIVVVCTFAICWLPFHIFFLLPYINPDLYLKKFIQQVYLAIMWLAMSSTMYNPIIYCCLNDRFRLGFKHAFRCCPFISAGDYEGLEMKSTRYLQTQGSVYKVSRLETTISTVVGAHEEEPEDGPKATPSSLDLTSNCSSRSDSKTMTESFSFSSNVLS

In the case of `CC(C)(C)C1CCC(C(=O)N2CCC3(CC2)CCN([C@H]2CCN(C(=O)c4cc(C(F)(F)F)cc(C(F)(F)F)c4)[C@H](Cc4ccccc4)C2)CC3)CC1` (stereo partly drawn) [Compound 40], the IC50 was 977 nM at NK1, above 10 µM at NK3 and above 10 µM on NK2.
Take `O=C(C1=CCCCC1)N1CCC2(CC1)CCN([C@H]1CCN(C(=O)c3cc(C(F)(F)F)cc(C(F)(F)F)c3)[C@H](Cc3ccccc3)C1)CC2` [Compound 41]: the values for the IC50 at NK1, at NK3 and on NK2 were 148 nM, above 10 µM and 8.51 µM, respectively.
For the compound `O=C(c1ccccc1Cl)N1CCC2(CC1)CCN([C@H]1CCN(C(=O)c3cc(C(F)(F)F)cc(C(F)(F)F)c3)[C@H](Cc3ccccc3)C1)CC2` [Compound 42], the IC50 on NK1 is 61.7 nM; at NK3, 9.33 µM; on NK2, 8.91 µM.
For `N#Cc1ccc(C(=O)N2CCC3(CC2)CCN([C@H]2CCN(C(=O)c4cc(C(F)(F)F)cc(C(F)(F)F)c4)[C@H](Cc4ccccc4)C2)CC3)cc1` [Compound 43], in that order: 105 nM, above 10 µM and 3.63 µM.
For `O=C(C1=COCCC1)N1CCC2(CC1)CCN([C@H]1CCN(C(=O)c3cc(C(F)(F)F)cc(C(F)(F)F)c3)[C@H](Cc3ccccc3)C1)CC2` [Compound 45], in that order: 79.4 nM, above 10 µM and 5.37 µM.
In the case of `O=C(c1ccc(=O)oc1)N1CCC2(CC1)CCN([C@H]1CCN(C(=O)c3cc(C(F)(F)F)cc(C(F)(F)F)c3)[C@H](Cc3ccccc3)C1)CC2` [Compound 46], the values for the IC50 on NK1, on NK3 and at NK2 were 105 nM, above 10 µM and 6.31 µM, respectively.
Turning to `Cc1cc(=O)oc(C)c1C(=O)N1CCC2(CC1)CCN([C@H]1CCN(C(=O)c3cc(C(F)(F)F)cc(C(F)(F)F)c3)[C@H](Cc3ccccc3)C1)CC2` [Compound 47], the IC50 on NK1 was 66.1 nM; at NK3, above 10 µM; on NK2 it was around 10 µM.
In the same order, the values of `CN1CCC=C(C(=O)N2CCC3(CC2)CCN([C@H]2CCN(C(=O)c4cc(C(F)(F)F)cc(C(F)(F)F)c4)[C@H](Cc4ccccc4)C2)CC3)C1` [Compound 48] are 219 nM, above 10 µM and above 10 µM.
Regarding `O=C(c1ccccn1)N1CCC2(CC1)CCN([C@H]1CCN(C(=O)c3cc(C(F)(F)F)cc(C(F)(F)F)c3)[C@H](Cc3ccccc3)C1)CC2` [Compound 49], the IC50 is 107 nM at NK1, above 10 µM at NK3 and 3.98 µM at NK2.
For `O=C(c1cccnc1)N1CCC2(CC1)CCN([C@H]1CCN(C(=O)c3cc(C(F)(F)F)cc(C(F)(F)F)c3)[C@H](Cc3ccccc3)C1)CC2` [Compound 50], in that order: 77.6 nM, above 10 µM and 2.63 µM.
In the case of `O=C(c1ccncc1)N1CCC2(CC1)CCN([C@H]1CCN(C(=O)c3cc(C(F)(F)F)cc(C(F)(F)F)c3)[C@H](Cc3ccccc3)C1)CC2` [Compound 51], the IC50 on NK1 is 29.5 nM; at NK3, above 10 µM; at NK2, 3.63 µM.
Regarding `O=C(c1cnccn1)N1CCC2(CC1)CCN([C@H]1CCN(C(=O)c3cc(C(F)(F)F)cc(C(F)(F)F)c3)[C@H](Cc3ccccc3)C1)CC2` [Compound 52], the IC50 at NK1 is 60.3 nM; on NK3, above 10 µM; at NK2, 2.88 µM.
In the same order, the values of `O=C(c1ncccc1O)N1CCC2(CC1)CCN([C@H]1CCN(C(=O)c3cc(C(F)(F)F)cc(C(F)(F)F)c3)[C@H](Cc3ccccc3)C1)CC2` [Compound 53] are 138 nM, above 10 µM and above 10 µM.
In the same order, the values of `O=C(c1ccc[nH]c1=O)N1CCC2(CC1)CCN([C@H]1CCN(C(=O)c3cc(C(F)(F)F)cc(C(F)(F)F)c3)[C@H](Cc3ccccc3)C1)CC2` [Compound 55] are 158 nM, above 10 µM and 3.98 µM.
In the same order, the values of `O=C(c1ccc(=O)[nH]c1)N1CCC2(CC1)CCN([C@H]1CCN(C(=O)c3cc(C(F)(F)F)cc(C(F)(F)F)c3)[C@H](Cc3ccccc3)C1)CC2` [Compound 57] are 151 nM, above 10 µM and 1.91 µM.
In the case of `O=C1CCC(C(=O)N2CCC3(CC2)CCN([C@H]2CCN(C(=O)c4cc(C(F)(F)F)cc(C(F)(F)F)c4)[C@H](Cc4ccccc4)C2)CC3)=NN1` [Compound 58], the IC50 on NK1 was 64.6 nM; on NK3, above 10 µM; at NK2, above 10 µM.
On to `O=C(c1cc(C(F)(F)F)cc(C(F)(F)F)c1)N1CC[C@@H](N2CCC3(CCN(C(=O)C45CC6CC(CC(C6)C4)C5)CC3)CC2)C[C@H]1Cc1ccccc1` [Compound 59], for which the IC50 is 347 nM at NK1, 5.89 µM on NK3 and above 10 µM on NK2.
For `O=C(c1cc(C(F)(F)F)cc(C(F)(F)F)c1)N1CC[C@H](N2CCC3(CCN(C(=O)C45CC6CC(CC(C6)C4)C5)CC3)CC2)C[C@H]1Cc1ccccc1` [Compound 60], in that order: 240 nM, 4.68 µM and 4.68 µM.
Take `CC12CCC(C(=O)N3CCC4(CC3)CCN([C@H]3CCN(C(=O)c5cc(C(F)(F)F)cc(C(F)(F)F)c5)[C@H](Cc5ccccc5)C3)CC4)(OC1=O)C2(C)C` (stereo partly drawn) [Compound 61]: the results for the IC50 on NK1, at NK3 and on NK2 were 263 nM, above 10 µM and above 10 µM, respectively.
For `O=C(c1ccc2c(c1)OCO2)N1CCC2(CC1)CCN([C@H]1CCN(C(=O)c3cc(C(F)(F)F)cc(C(F)(F)F)c3)[C@H](Cc3ccccc3)C1)CC2` [Compound 62], the IC50 on NK1 was 186 nM; on NK3, above 10 µM; at NK2 it was above 10 µM.
Consider `O=C(c1ccc2c(c1)OCO2)N1CCC2(CC1)CCN([C@@H]1CCN(C(=O)c3cc(C(F)(F)F)cc(C(F)(F)F)c3)[C@H](Cc3ccccc3)C1)CC2` [Compound 63], for which the IC50 is 437 nM at NK1, above 10 µM on NK3 and 7.94 µM at NK2.
With `O=C(c1cc2ccccc2o1)N1CCC2(CC1)CCN([C@H]1CCN(C(=O)c3cc(C(F)(F)F)cc(C(F)(F)F)c3)[C@H](Cc3ccccc3)C1)CC2` [Compound 64], the IC50 on NK1 was 891 nM; on NK3, above 10 µM; at NK2 it was above 10 µM.
Take `O=C(c1cnc2ccccc2n1)N1CCC2(CC1)CCN([C@H]1CCN(C(=O)c3cc(C(F)(F)F)cc(C(F)(F)F)c3)[C@H](Cc3ccccc3)C1)CC2` [Compound 66]: the results for the IC50 at NK1, at NK3 and at NK2 were 66.1 nM, 6.92 µM and 3.72 µM, respectively.
In the same order, the values of `Cc1nc2ccc(C(=O)N3CCC4(CC3)CCN([C@H]3CCN(C(=O)c5cc(C(F)(F)F)cc(C(F)(F)F)c5)[C@H](Cc5ccccc5)C3)CC4)cc2[nH]1` [Compound 67] are 57.5 nM, above 10 µM and 9.77 µM.
For `O=C(c1ccc2nonc2c1)N1CCC2(CC1)CCN([C@H]1CCN(C(=O)c3cc(C(F)(F)F)cc(C(F)(F)F)c3)[C@H](Cc3ccccc3)C1)CC2` [Compound 68], in that order: 295 nM, above 10 µM and 5.62 µM.
For `CC(C)(C)CC(=O)N1CCC2(CC1)CCN([C@H]1CCN(C(=O)c3cc(C(F)(F)F)cc(C(F)(F)F)c3)[C@H](Cc3ccccc3)C1)CC2` [Compound 69], in that order: 64.6 nM, 6.61 µM and 3.09 µM.
Regarding `O=C(CC1C=CCC1)N1CCC2(CC1)CCN([C@H]1CCN(C(=O)c3cc(C(F)(F)F)cc(C(F)(F)F)c3)[C@H](Cc3ccccc3)C1)CC2` (stereo partly drawn) [Compound 70], the IC50 on NK1 was 81.3 nM; at NK3 it was above 10 µM; at NK2, 5.37 µM.

(Values after patent publication US7544694B2, “Substituted diaza-spiro-[5.5]-undecane derivatives and their use as neurokinin antagonists” (Janssen Pharmaceutica N.V., priority 2004, dated 2009).)
